Values quoted from earlier work, collected in patent US20220280463A1, “PHARMACEUTICAL FORMULATIONS COMPRISING DICLOFENAC” (FTF PHARMA PRIVATE LIMITED, priority 2019, published 2022).

System: erythrocytes
Details: aqueous solution of 2% propylene glycol, in 45 min

Structure (SMILES): CC(O)CO (stereo not shown) [propylene glycol]
- haemolysis of erythrocytes: 100%
